Reference: patent US12247031B2, “Cyclobutyl pyrazolopyrimidine PDE9 inhibitors” (Merck Sharp & Dohme LLC, priority 2018, dated 2025)

These compounds were tested against Human PDE9 (PDE9A2) (Homo sapiens (Human), UniProt O76083) (assay: PDE9 IMAP fluorescence polarization assay). Details: human PDE9A2, FAM-cGMP substrate 50 nM, IMAP FP, apparent inhibition constant.
Assay type: biochemical
Protocol: The activity of the compounds in accordance with the present invention as PDE9 inhibitors may be readily determined without undue experimentation using a fluorescence polarization (FP) methodology that is well known in the art (Huang, W., et al., J. Biomol Screen. 2002, 7: 215).
In a typical experiment the PDE9 inhibitory activity of the compounds of the present invention was determined in accordance with the following experimental method.
Human PDE9 (PDE9A2, GenBank Accession No. NM_001001567), full length with N-terminal GST tag, was purchased from BPS Bioscience. The fluorescence polarization assay for cyclic nucleotide phosphodiesterases was performed using an IMAP® FP kit supplied by Molecular Devices, Sunnyvale, CA (product #R8139). IMAP® technology has been applied previously to phosphodiesterase assays (Huang, W., et al., J. Biomol Screen. 2002, 7: 215).
Fluorescence polarization (mP) was calculated from the parallel (S) and perpendicular (P) fluorescence of each sample well and the analogous values for the median control well, containing only substrate (So and Po), using the following equation: Polarization (mP)=1000*(S/So−P/Po)/(S/So+P/Po).
Dose-inhibition profiles for each compound were characterized by fitting the mP data to a four-parameter equation given below. The apparent inhibition constant (KI), the maximum inhibition at the low plateau relative to “100% Inhibition Control” (Imax; e.g. 1=>same as this control), the minimum inhibition at the high plateau relative to the “0% Inhibition Control” (Imin, e.g. 0=>same as the no drug control) and the Hill slope (nH) are determined by a non-linear least squares fitting of the mP values as a function of dose of the compound using an in-house software based on the procedures described by Mosser et al., JALA. 2003, 8: 54-63, using the following equation: […]

| SMILES | Ki |
| --- | --- |
| C[C@@H](c1ccc(C(F)(F)F)nc1)n1nc(C#N)c2c(=O)[nH]c(C3CCC3c3cc4n(n3)CCC4)nc21 (stereo partly drawn) [Example 12, 6-(2-(5,6-dihydro-4H-pyrrolo[1,2-b]pyrazol-2-yl)cyclobutyl)-4-oxo-1-((S)-1-(6-(trifluoromethyl)pyridin-3-yl)ethyl)-4,5-dihydro-1H-pyrazolo[3,4-d]pyrimidine-3-carbonitrile] | 608 nM |
| C[C@@H](c1ccc(C(F)(F)F)nc1)n1nc(C#N)c2c(=O)[nH]c(C3CCC3c3cncnc3)nc21 (stereo partly drawn) [Example 22, 4-oxo-6-(2-(pyrimidin-5-yl)cyclobutyl)-1-((S)-1-(6-(trifluoromethyl)pyridin-3-yl)ethyl)-4,5-dihydro-1H-pyrazolo[3,4-d]pyrimidine-3-carbonitrile] | 608 nM |
| C[C@@H](c1ccc(C(F)(F)F)nc1)n1nc(C#N)c2c(=O)[nH]c(C3CCC3c3cncnc3)nc21 (stereo partly drawn) [Example 23, 4-oxo-6-(2-(pyrimidin-5-yl)cyclobutyl)-1-((S)-1-(6-(trifluoromethyl)pyridin-3-yl)ethyl)-4,5-dihydro-1H-pyrazolo[3,4-d]pyrimidine-3-carbonitrile] | 608 nM |
| CC(c1ccc(C(F)(F)F)nc1)n1nc(C#N)c2c(=O)[nH]c(C3CCC3N3CCOCC3=O)nc21 (centres unmarked) [Example 30, 4-oxo-6-(2-(3-oxomorpholino)cyclobutyl)-1-(1-(6-(trifluoromethyl)pyridin-3-yl)ethyl)-4,5-dihydro-1H-pyrazolo[3,4-d]pyrimidine-3-carbonitrile] | 608 nM |
| C[C@@H](c1ccc(C(F)(F)F)nc1)n1nc(C#N)c2c(=O)[nH]c(C3CCC3n3cc(C(F)(F)F)cn3)nc21 (stereo partly drawn) [Example 31, 4-oxo-6-(2-(4-(trifluoromethyl)-1H-pyrazol-1-yl)cyclobutyl)-1-((S)-1-(6-(trifluoromethyl)pyridin-3-yl)ethyl)-4,5-dihydro-1H-pyrazolo[3,4-d]pyrimidine-3-carbonitrile] | 0.399 nM |
| C[C@@H](c1ccc(C(F)(F)F)nc1)n1nc(C#N)c2c(=O)[nH]c(C3CCC3n3ccc(C(F)(F)F)n3)nc21 (stereo partly drawn) [Example 32, 4-oxo-6-(2-(3-(trifluoromethyl)-1H-pyrazol-1-yl)cyclobutyl)-1-((S)-1-(6-(trifluoromethyl)pyridin-3-yl)ethyl)-4,5-dihydro-1H-pyrazolo[3,4-d]pyrimidine-3-carbonitrile] | 608 nM |
| CC(C1CCOCC1)n1nc(C#N)c2c(=O)[nH]c(C3CCC3n3cccn3)nc21 (centres unmarked) [Example 40, 6-(2-(1H-pyrazol-1-yl)cyclobutyl)-4-oxo-1-(1-(tetrahydro-2H-pyran-4-yl)ethyl)-4,5-dihydro-1H-pyrazolo[3,4-d]pyrimidine-3-carbonitrile] | 225 nM |
| CC(C1CCOCC1)n1nc(C#N)c2c(=O)[nH]c(C3CCC3n3cc(C#N)cn3)nc21 (centres unmarked) [Example 41, 6-(2-(4-cyano-1H-pyrazol-1-yl)cyclobutyl)-4-oxo-1-(1-(tetrahydro-2H-pyran-4-yl)ethyl)-4,5-dihydro-1H-pyrazolo[3,4-d]pyrimidine-3-carbonitrile] | 608 nM |
| C[C@@H](c1ccc(C(F)(F)F)nc1)n1nc(C#N)c2c(=O)[nH]c(C3CCC3n3cc(C(F)(F)F)cn3)nc21 (stereo partly drawn) [Example 43, 4-oxo-6-(2-(4-(trifluoromethyl)-1H-pyrazol-1-yl)cyclobutyl)-1-((S)-1-(6-(trifluoromethyl)pyridin-3-yl)ethyl)-4,5-dihydro-1H-pyrazolo[3,4-d]pyrimidine-3-carbonitrile] | 4.75 nM |
| CC(c1ccc(C(F)(F)F)nc1)n1nc(C#N)c2c(=O)[nH]c(C3CCC3n3cc(C(F)F)cn3)nc21 (centres unmarked) [Example 45, 6-(2-(4-(difluoromethyl)-1H-pyrazol-1-yl)cyclobutyl)-4-oxo-1-(1-(6-(trifluoromethyl)pyridin-3-yl)ethyl)-4,5-dihydro-1H-pyrazolo[3,4-d]pyrimidine-3-carbonitrile] | 115 nM |
| CC(C1CCOCC1)n1nc(C#N)c2c(=O)[nH]c(C3CCC3n3cccn3)nc21 (centres unmarked) [Example 46, 6-(2-(1H-pyrazol-1-yl)cyclobutyl)-4-oxo-1-(1-(tetrahydro-2H-pyran-4-yl)ethyl)-4,5-dihydro-1H-pyrazolo[3,4-d]pyrimidine-3-carbonitrile] | 608 nM |
